According to patent publication US20240246964A1 (Arbutus Biopharma Corporation, priority 2021, published 2024):

Experiments:
human PD-L1 = human PD-L1 (Homo sapiens (Human), UniProt Q9NZQ7); test: T cell activation luciferase reporter cell culture system (T Cell Activation Assay); format: cell-based; conditions: luciferase reporter assay; PD-L1 aAPC/CHO-K1 cells with PD-1 effector Jurkat T cells
[1] = target: PD-L1 His protein / PD-1 Fc protein (Homo sapiens (Human), UniProt Q9NZQ7); test: HTRF Assay (PD-1/PD-L1 interaction); format: binding; conditions: PD-L1 His 6 nM, PD-1 Fc 6 nM
Chain of PD-L1 His protein / PD-1 Fc protein (Q9NZQ7 19-238): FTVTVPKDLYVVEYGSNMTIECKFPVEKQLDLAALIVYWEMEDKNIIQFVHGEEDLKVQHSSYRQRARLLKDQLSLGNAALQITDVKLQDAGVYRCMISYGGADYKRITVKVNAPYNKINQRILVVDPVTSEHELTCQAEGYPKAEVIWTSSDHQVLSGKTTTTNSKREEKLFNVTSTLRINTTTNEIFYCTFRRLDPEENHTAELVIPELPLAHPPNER

Chain of human PD-L1 (Q9NZQ7 19-290): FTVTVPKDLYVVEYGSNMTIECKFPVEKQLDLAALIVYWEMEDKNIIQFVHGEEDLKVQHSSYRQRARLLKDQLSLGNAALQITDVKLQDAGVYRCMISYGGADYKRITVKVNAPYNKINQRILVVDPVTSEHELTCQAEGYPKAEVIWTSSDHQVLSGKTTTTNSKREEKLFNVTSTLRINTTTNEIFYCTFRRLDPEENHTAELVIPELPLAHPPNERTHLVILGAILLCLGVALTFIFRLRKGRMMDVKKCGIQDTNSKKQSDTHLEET

Compound	EC50 (human PD-L1) [nM]	IC50 [1] [nM]
COc1cc(-c2nccc(-c3cccc(-c4ccc(CNC[C@H](C)O)c(OC)n4)c3Cl)c2Cl)ccc1CNC[C@H](C)O [Example 301, (S)-1-(((6-(2-Chloro-3-(3-chloro-2-(4-((((S)-2-hydroxypropyl)amino)methyl)-3-methoxyphenyl)pyridin-4-yl)phenyl)-2-methoxypyridin-3-yl)methyl)amino)propan-2-ol]	19.7	0.57
COc1cc(-c2nccc(-c3cccc(-c4ccc(CNC5CC6(CCNC6=O)C5)c(OC)n4)c3Cl)c2Cl)ccc1CNC1CC2(CCNC2=O)C1 (centres unmarked) [Example 302, 2-((4-(3-Chloro-4-(2-chloro-3-(6-methoxy-5-(((5-oxo-6-azaspiro[3.4]octan-2-yl)amino)methyl)pyridin-2-yl)phenyl)pyridin-2-yl)-2-methoxybenzyl)amino)-6-azaspiro[3.4]octan-5-one]	23.5	1.11
COc1cc(-c2nccc(-c3cccc(-c4ccc(CNCCN5CCCC5=O)c(OC)n4)c3Cl)c2Cl)ccc1CNCCN1CCCC1=O [Example 303, 1-(2-(((6-(2-Chloro-3-(3-chloro-2-(3-methoxy-4-(((2-(2-oxopyrrolidin-1-yl)ethyl)amino)methyl)phenyl)pyridin-4-yl)phenyl)-2-methoxypyridin-3-yl)methyl)amino)ethyl)pyrrolidin-2-one]	30.8	2.83
COc1nc(-c2ccnc(-c3cccc4c3CC[C@@H]4Nc3nc(OC)c(CN4CC5(CNC(=O)C5)C4)nc3C(F)(F)F)c2Cl)ccc1CN1CC2(CNC(=O)C2)C1 [Example 304, (S)-2-((3′-chloro-6-methoxy-2′-(1-((6-methoxy-5-((7-oxo-2,6-diazaspiro[3.4]octan-2-yl)methyl)-3-(trifluoromethyl)pyrazin-2-yl)amino)-2,3-dihydro-1H-inden-4-yl)-[2,4′-bipyridin]-5-yl)methyl)-2,6-diazaspiro[3.4]octan-7-one]	197	6.51
COc1nc(-c2ccnc(-c3cccc4c3CC[C@@H]4Nc3nc(OC)c(CN4CC5(C4)CN(C(C)=O)C5)nc3C(F)(F)F)c2Cl)ccc1CN1CC2(C1)CN(C(C)=O)C2 [Example 305, (S)-1-(6-((5-((4-(5-((6-Acetyl-2,6-diazaspiro[3.3]heptan-2-yl)methyl)-3′-chloro-6-methoxy-[2,4′-bipyridin]-2′-yl)-2,3-dihydro-1H-inden-1-yl)amino)-3-methoxy-6-(trifluoromethyl)pyrazin-2-yl)methyl)-2,6-diazaspiro[3.3]heptan-2-yl)ethan-1-one]	≥ 10000	4.96
COc1cc(-c2nccc(-c3cccc4c3CC[C@@H]4Oc3nc(OC)c(CN4CC5(CNC(=O)C5)C4)cc3C(F)(F)F)c2Cl)cc(F)c1CN1CC2(CNC(=O)C2)C1 [Example 306, (S)-2-(4-(3-chloro-4-(1-((6-methoxy-5-((7-oxo-2,6-diazaspiro[3.4]octan-2-yl)methyl)-3-(trifluoromethyl)pyridin-2-yl)oxy)-2,3-dihydro-1H-inden-4-yl)pyridin-2-yl)-2-fluoro-6-methoxybenzyl)-2,6-diazaspiro[3.4]octan-7-one]	361	0.76
COc1nc(-c2cccc(-c3ccnc(-c4cc(Cl)c5c(c4)CCN(CC4COC4)C5)c3Cl)c2Cl)ccc1CNC[C@@H]1CCC(=O)N1 [Example 307, (S)-5-((((6-(2-Chloro-3-(3-chloro-2-(8-chloro-2-(oxetan-3-ylmethyl)-1,2,3,4-tetrahydroisoquinolin-6-yl)pyridin-4-yl)phenyl)-2-methoxypyridin-3-yl)methyl)amino)methyl)pyrrolidin-2-one]	186	1.41
COc1nc(-c2cccc(-c3ccnc(-c4ccc5c(CN6CC7(C6)CN(C(C)=O)C7)nn(C)c5c4)c3Cl)c2Cl)ccc1CNC[C@@H]1CCC(=O)N1 [Example 308, (S)-5-((((6-(3-(2-(3-((6-Acetyl-2,6-diazaspiro[3.3]heptan-2-yl)methyl)-1-methyl-1H-indazol-6-yl)-3-chloropyridin-4-yl)-2-chlorophenyl)-2-methoxypyridin-3-yl)methyl)amino)methyl)pyrrolidin-2-one]	24.1	0.95
COc1nc(-c2cccc(-c3ccnc(-c4ccc5c(CN6CC[C@H](C(=O)O)C6)nn(C)c5c4)c3Cl)c2Cl)ccc1CNC[C@@H]1CCC(=O)N1 [Example 309, (S)-1-((6-(3-Chloro-4-(2-chloro-3-(6-methoxy-5-(((((S)-5-oxopyrrolidin-2-yl)methyl)amino)methyl)pyridin-2-yl)phenyl)pyridin-2-yl)-1-methyl-1H-indazol-3-yl)methyl)pyrrolidine-3-carboxylic acid]	75	0.3
COc1nc(-c2cccc(-c3ccnc(-c4cc(OC)c5nc(CNC[C@@H]6CCC(=O)N6)cn5c4)c3Cl)c2Cl)ccc1CNC[C@@H]1CCC(=O)N1 [Example 310, (S)-5-((((6-(2-Chloro-3-(3-chloro-2-(8-methoxy-2-(((((S)-5-oxopyrrolidin-2-yl)methyl)amino)methyl)imidazo[1,2-a]pyridin-6-yl)pyridin-4-yl)phenyl)-2-methoxypyridin-3-yl)methyl)amino)methyl)pyrrolidin-2-one]	90.5	1.8
COc1cc(-c2nccc(-c3cccc(-c4cnc(CNC5CCN(C(C)=O)CC5)c(OC)n4)c3Cl)c2Cl)ccc1CNC1CCN(C(C)=O)CC1 [Example 311, 1-(4-(((5-(3-(2-(4-(((1-Acetylpiperidin-4-yl)amino)methyl)-3-methoxyphenyl)-3-chloropyridin-4-yl)-2-chlorophenyl)-3-methoxypyrazin-2-yl)methyl)amino)piperidin-1-yl)ethan-1-one]	152	0.907
COc1nc(-c2cccc(-c3ccnc(-c4cc(OC)c5nc(CN[C@H]6C[C@](C)(O)C6)cn5c4)c3Cl)c2Cl)ccc1CNC[C@@H]1CCC(=O)N1 [Example 312, (S)-5-((((6-(2-chloro-3-(3-chloro-2-(2-((((1r,3r)-3-hydroxy-3-methylcyclobutyl)amino)methyl)-8-methoxyimidazo[1,2-a]pyridin-6-yl)pyridin-4-yl)phenyl)-2-methoxypyridin-3-yl)methyl)amino)methyl)pyrrolidin-2-one]	178	0.813
COc1nc(-c2cccc(-c3ccnc(-c4cc(OC)c5nc(CN6CC7(CNC(=O)C7)C6)cn5c4)c3Cl)c2Cl)ccc1CNC[C@@H]1CCC(=O)N1 [Example 314, (S)-2-((6-(3-Chloro-4-(2-chloro-3-(6-methoxy-5-((((5-oxopyrrolidin-2-yl)methyl)amino)methyl)pyridin-2-yl)phenyl)pyridin-2-yl)-8-methoxyimidazo[1,2-a]pyridin-2-yl)methyl)-2,6-diazaspiro[3.4]octan-7-one]	69.2	1.63
COc1cc(-c2nccc(-c3cccc(-c4ccc(CNC5CCN(C(C)=O)CC5)c(OC)n4)c3Cl)c2Cl)ccc1CN(C)C1CCN(C(C)=O)CC1 [Example 315, 1-(4-(((6-(3-(2-(4-(((1-acetylpiperidin-4-yl)(methyl)amino)methyl)-3-methoxyphenyl)-3-chloropyridin-4-yl)-2-chlorophenyl)-2-methoxypyridin-3-yl)methyl)amino)piperidin-1-yl)ethan-1-one]	28.9	1.54
COc1cc(-c2nccc(-c3cccc(-c4ccc(CNC5CCN(C(=O)C6CC6)CC5)c(OC)n4)c3Cl)c2Cl)cc(F)c1CNC1CCN(C(=O)C2CC2)CC1 [Example 316, (4-(((6-(2-Chloro-3-(3-chloro-2-(4-(((1-(cyclopropanecarbonyl)piperidin-4-yl)amino)methyl)-3-fluoro-5-methoxyphenyl)pyridin-4-yl)phenyl)-2-methoxypyridin-3-yl)methyl)amino)piperidin-1-yl)(cyclopropyl)methanone]	45.7	3.45
COc1nc(-c2cccc(-c3ccnc(-c4cc(OC)c5nc(CN6CC(C)(O)C6)cn5c4)c3Cl)c2Cl)ccc1CNC[C@@H]1CCC(=O)N1 [Example 317, (S)-5-((((6-(2-Chloro-3-(3-chloro-2-(2-((3-hydroxy-3-methylazetidin-1-yl)methyl)-8-methoxyimidazo[1,2-a]pyridin-6-yl)pyridin-4-yl)phenyl)-2-methoxypyridin-3-yl)methyl)amino)methyl)pyrrolidin-2-one]	62.6	1.94
COc1nc(-c2cccc(-c3ccnc(-c4cc(OC)c5nc(CNC6CCN(C(C)=O)CC6)cn5c4)c3Cl)c2Cl)ccc1CNC[C@@H]1CCC(=O)N1 [Example 318, (S)-5-((((6-(3-(2-(2-(((1-Acetylpiperidin-4-yl)amino)methyl)-8-methoxyimidazo[1,2-a]pyridin-6-yl)-3-chloropyridin-4-yl)-2-chlorophenyl)-2-methoxypyridin-3-yl)methyl)amino)methyl)pyrrolidin-2-one]	31.5	1.8
COc1nc(-c2cccc(-c3ccnc(-c4cc(OC)c5nc(CN6CC7(C6)CN(C(C)=O)C7)cn5c4)c3Cl)c2Cl)ccc1CNC[C@@H]1CCC(=O)N1 [Example 319, (S)-5-((((6-(3-(2-(2-((6-Acetyl-2,6-diazaspiro[3.3]heptan-2-yl)methyl)-8-methoxyimidazo[1,2-a]pyridin-6-yl)-3-chloropyridin-4-yl)-2-chlorophenyl)-2-methoxypyridin-3-yl)methyl)amino)methyl)pyrrolidin-2-one]	38.3	0.767
COc1nc(-c2cccc(-c3ccnc(-c4cc(OC)c5nc(CN6CC7(CCC(=O)N7)C6)cn5c4)c3Cl)c2Cl)ccc1CNC[C@@H]1CCC(=O)N1 [Example 320, (S)-2-((6-(3-Chloro-4-(2-chloro-3-(6-methoxy-5-((((5-oxopyrrolidin-2-yl)methyl)amino)methyl)pyridin-2-yl)phenyl)pyridin-2-yl)-8-methoxyimidazo[1,2-a]pyridin-2-yl)methyl)-2,5-diazaspiro[3.4]octan-6-one]	51.2	0.231
